Assay results published in US5756521A, “Chroman-2-ylmethylamino derivatives” (American Home Products Corporation, priority 1997, dated 1998).

Tests used:
[1] = target: T1, dopamine autoreceptor (D2, 3H-quinpirole) (Rattus norvegicus, UniProt P61169); assay: Dopamine autoreceptor affinity, 3H-quinpirole binding in homogenized rat striatal brain tissue; conditions: rat striatal brain tissue homogenate, read-out: IC50 (nM), D2, (Quin.)
T1 construct: homogenized rat striatal brain tissue; from tissue; host or cells: rat striatal brain tissue
T1 sequence (P61169 whole entry): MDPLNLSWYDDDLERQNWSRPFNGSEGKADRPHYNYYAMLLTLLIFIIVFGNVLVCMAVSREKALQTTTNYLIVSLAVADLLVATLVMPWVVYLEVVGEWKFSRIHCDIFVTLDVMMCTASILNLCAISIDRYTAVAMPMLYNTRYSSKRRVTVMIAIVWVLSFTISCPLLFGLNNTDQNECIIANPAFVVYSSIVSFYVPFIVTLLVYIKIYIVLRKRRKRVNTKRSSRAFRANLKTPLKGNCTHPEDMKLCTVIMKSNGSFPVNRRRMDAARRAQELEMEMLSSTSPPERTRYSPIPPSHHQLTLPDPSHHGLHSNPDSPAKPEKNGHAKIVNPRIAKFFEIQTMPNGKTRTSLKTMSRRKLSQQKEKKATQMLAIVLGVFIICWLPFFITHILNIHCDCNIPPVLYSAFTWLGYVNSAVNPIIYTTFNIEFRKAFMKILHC
Protocol: Affinity for the dopamine autoreceptor was established by a modification of the standard experimental test procedure of Seemen and Schaus, European Journal of Pharmacology 203: 105-109, 1991, wherein homogenized rat striatal brain tissue is incubated with ^3 H-quinpirole (Quin.) and various concentrations of test compound, filtered and washed and counted in a Betaplate scintillation counter.

dopamine D-2 receptor = target: T2, dopamine D-2 receptor (Rattus norvegicus, UniProt P61169); assay: Dopamine D-2 receptor affinity, 3H-spiroperidol binding in homogenized limbic brain tissue
T2 construct: homogenized limbic brain tissue; from tissue
T2 sequence (P61169 whole entry): as above
Protocol: High affinity for the dopamine D-2 receptor was established by the standard experimental test procedure of Fields, et al., Brain Res., 136, 578 (1977) and Yamamura et al., eds., Neurotransmitter Receptor Binding, Raven Press, N.Y. (1978) wherein homogenized limbic brain tissue is incubated with ^3 H-spiroperidol (Spiper.) and various concentrations of test compound, filtered and washed and shaken with Hydrofluor scintillation cocktail (National Diagnostics) and counted in a Packard 460 CD scintillation counter.

- IC50 [1]: 2.21 nM
- IC50 (dopamine D-2 receptor; 3H-spiroperidol, limbic brain tissue homogenate, read-out: IC50 (nM), (Spiper.)): 1230 nM
- ratio (dopamine D-2 receptor; ratio of IC50 (Spiper.) to IC50 (Quin.), LowAg/HighAg): 557
SMILES: Oc1ccc2c(c1)OC(CNCc1ccccn1)CC2 (stereo not drawn) [Example 1]
